This is an account of results in patent US20230322769A1, “HETEROAROMATIC RING COMPOUND AS RET KINASE INHIBITOR, AND PREPARATION AND USE THEREOF” (JIANGSU CHIA TAI FENGHAI PHARMACEUTICAL CO., LTD., priority 2020, published 2023).

A short description of data set [1]: Metabolic stability in human liver microsomes. Particulars: human liver microsomes, NADPH, Table 3; for microsomal CLint at 1 µM: CLint (μL/min/mg); for half-life at 1 µM: T1/2 (min). (In general: Liver microsomes are vesicles of endoplasmic reticulum, rich in cytochrome P450 enzymes.)
The next data set concerns the target FGFR2 V564I (Homo sapiens (Human), UniProt P21802, V564I). As to the kind of experiment: HTRF kinase activity assay, FGFR2 V564I. Type of data set: biochemical. As to the method:
(§1) Activity Experiment 8: Inhibition of FGFR Family Kinases' Activity by Prepared Compounds The compounds were assayed for activity IC50 against the FGFR family kinases. Related kinases were purchased from Carna and Signalchem. The activity assay method for the related kinases was established by homogeneous time-resolved fluorescence (HTRF), and the inhibitory activity of the compounds was determined. […] The kinases and compounds were pre-incubated for 10 min, and then ATP and substrate were added to start the reaction. All the enzyme-catalyzed reactions were carried out at 25° C. for 40 min. After the enzyme-catalyzed reactions were completed, 5 μL of TK antibody-cryptate and streptavidin-XL665 (the reaction concentration of streptavidin-XL665 was 62.5 nM) were added to the reaction mixtures, and the mixtures were incubated at 25° C. for another 60 min.
A general note: Time-resolved FRET reads energy transfer from a long-lived donor to a nearby acceptor.

Data set [2] deals with BA/F3 KIF5B-RET graft tumor. As to the kind of experiment: Mouse subcutaneous BA/F3 KIF5B-RET graft tumor model. Type of data set: in vivo.
For a further data set, the target named is FGFR3 K650E (Homo sapiens (Human), UniProt P22607, K650E). The data set is described as follows: HTRF kinase activity assay, FGFR3 K650E. It counts as biochemical. As for the experimental part: (§2) Activity Experiment 8: Inhibition of FGFR Family Kinases' Activity by Prepared Compounds The compounds were assayed for activity IC50 against the FGFR family kinases. Related kinases were purchased from Carna and Signalchem.
FGFR3 K650E, sequence (P22607 23-806 K650E): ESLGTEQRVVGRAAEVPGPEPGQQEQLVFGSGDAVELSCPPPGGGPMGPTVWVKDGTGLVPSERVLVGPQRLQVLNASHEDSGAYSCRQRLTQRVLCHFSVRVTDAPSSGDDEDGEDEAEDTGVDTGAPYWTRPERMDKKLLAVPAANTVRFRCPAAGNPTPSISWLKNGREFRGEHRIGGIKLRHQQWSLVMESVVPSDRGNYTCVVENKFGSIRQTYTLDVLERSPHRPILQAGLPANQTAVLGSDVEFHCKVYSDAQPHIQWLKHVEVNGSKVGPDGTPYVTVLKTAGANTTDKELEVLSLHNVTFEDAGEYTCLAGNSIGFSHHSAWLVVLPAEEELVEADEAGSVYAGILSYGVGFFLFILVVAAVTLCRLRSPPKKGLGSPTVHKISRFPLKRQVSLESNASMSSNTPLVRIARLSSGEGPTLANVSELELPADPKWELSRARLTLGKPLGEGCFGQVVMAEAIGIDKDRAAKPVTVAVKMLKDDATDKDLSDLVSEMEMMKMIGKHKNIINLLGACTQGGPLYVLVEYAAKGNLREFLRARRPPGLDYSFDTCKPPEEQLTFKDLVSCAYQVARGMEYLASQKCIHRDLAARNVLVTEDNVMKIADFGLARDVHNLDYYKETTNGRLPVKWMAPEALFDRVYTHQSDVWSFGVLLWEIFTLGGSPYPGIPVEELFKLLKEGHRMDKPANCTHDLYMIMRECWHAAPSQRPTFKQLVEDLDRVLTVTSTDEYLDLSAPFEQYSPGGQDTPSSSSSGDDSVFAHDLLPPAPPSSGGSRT
(§3) The activity assay method for the related kinases was established by homogeneous time-resolved fluorescence (HTRF), and the inhibitory activity of the compounds was determined. A 5 μL reaction mixture was prepared, comprising 1× enzymatic buffer (Cisbio, HTRF KinEASE™-TK), 5 mM MgCl2, 1 mM DTT, 1 μM TK substrate-biotin (Cisbio, HTRF KinEASE™-TK), corresponding concentrations of ATP and related kinases, and gradient concentrations of compounds.
(§4) The kinases and compounds were pre-incubated for 10 min, and then ATP and substrate were added to start the reaction. All the enzyme-catalyzed reactions were carried out at 25° C. for 40 min. After the enzyme-catalyzed reactions were completed, 5 μL of TK antibody-cryptate and streptavidin-XL665 (the reaction concentration of streptavidin-XL665 was 62.5 nM) were added to the reaction mixtures, and the mixtures were incubated at 25° C. for another 60 min.

The target of a further data set is FGFR3 (Homo sapiens (Human), UniProt P22607). As to the kind of experiment: HTRF kinase activity assay, FGFR3. It counts as biochemical. As to the method:
as §2, §3, §4

The target of a further data set is FGFR2 (Homo sapiens (Human), UniProt P21802). The data set is described as follows: HTRF kinase activity assay, FGFR2. It counts as biochemical. As for the experimental part:
as §1

The next data set has as its target FGFR2 V564F (Homo sapiens (Human), UniProt P21802, V564F). As to the kind of experiment: HTRF kinase activity assay, FGFR2 V564F. Type of data set: biochemical. As for the experimental part:
as §1

Data set [3] is described as follows: Tissue distribution assay in mice. Type of data set: in vivo, mouse. To be noted: for concentration at 4 h: male, mouse. As to the method: Male NVSG mice (weighing 20-25 g) were orally administered compound 94 and Loxo-292 at a dose of 30 mg/kg. The plasma and tissue samples of the liver, the brain and the lungs and the like of the animals are collected 4 h after administration. Blood plasma collection: The whole blood was collected at about 80-100 μL in EDTA-containing EP tubes and centrifuged at 4000 g for 5 min, and then the upper plasma was collected and stored at −80° C.
Tissue collection: After the animals were euthanized, the tissues were collected and snap-frozen in liquid nitrogen, 5 mL of homogenization solution (50% acetonitrile) was added per gram of tissue. The tissues were processed into homogenates in a tissue homogenizer and stored at −80° C. The concentration of compound in the plasma and tissue samples was quantified by liquid chromatography-tandem mass spectrometry (LC-MS/MS).

Data set [4] deals with Ba/F3 KIF5B-RET-V804M cells. As to the kind of experiment: Ba/F3 KIF5B-RET-V804M cell inhibition (CellTiter-Glo). Type of data set: cell-based. Particulars: Mus musculus, BaF3, 72 h. As for the experimental part: (§5) Activity Experiment 3: Inhibition of Ba/F3 KIF5B-RET Cells by Prepared Compounds Ba/F3 KIF5B-RET, Ba/F3KIF5B-RET-V804M, Ba/F3 RET-M918T and Ba/F3 KIF5B-RET-G810R cells growing in log phase were harvested and counted using a […]. The cell viability was determined by the trypan blue exclusion method, and the cell viability was kept over 90%. The cell concentration was adjusted, and 90 μL of the cell suspension was added to a 96-well plate. The cells in the 96-well plate were incubated overnight at 37° C. with 5% CO2 and 95% humidity. Corresponding gradient concentrations of drug solutions (the maximum concentration was 1000 nM) were added to the 96-well plate inoculated with cells at 10 μL/well. Triplicate wells were set per drug concentration, and the final concentration of DMSO was 0.1%. The drug-treated cells in the 96-well plate were incubated for another 72 h at 37° C. with 5% CO2 and 95% humidity. After the drug treatment was completed, 100 μL of CellTiter-Glo reagent was added to each well. The cell plate was shaken on an orbital shaker for 5 min to lyse the cells and then let stand at room temperature for 20 min to stabilize the luminescence signals, and then the luminescence values were read. The data were analyzed using the GraphPad Prism 5.0 software. Dose-response curves were fit to the data using nonlinear S-curve regression, and IC50 was calculated from the curves.
For orientation: In ATP-based viability assays light output follows the ATP content of the culture.

The target of a further data set is FGFR1 (Homo sapiens (Human), UniProt P11362). As to the kind of experiment: HTRF kinase activity assay, FGFR1. Type of data set: biochemical. As to the method: as §2, §3, §4
FGFR1, sequence (P11362 22-822): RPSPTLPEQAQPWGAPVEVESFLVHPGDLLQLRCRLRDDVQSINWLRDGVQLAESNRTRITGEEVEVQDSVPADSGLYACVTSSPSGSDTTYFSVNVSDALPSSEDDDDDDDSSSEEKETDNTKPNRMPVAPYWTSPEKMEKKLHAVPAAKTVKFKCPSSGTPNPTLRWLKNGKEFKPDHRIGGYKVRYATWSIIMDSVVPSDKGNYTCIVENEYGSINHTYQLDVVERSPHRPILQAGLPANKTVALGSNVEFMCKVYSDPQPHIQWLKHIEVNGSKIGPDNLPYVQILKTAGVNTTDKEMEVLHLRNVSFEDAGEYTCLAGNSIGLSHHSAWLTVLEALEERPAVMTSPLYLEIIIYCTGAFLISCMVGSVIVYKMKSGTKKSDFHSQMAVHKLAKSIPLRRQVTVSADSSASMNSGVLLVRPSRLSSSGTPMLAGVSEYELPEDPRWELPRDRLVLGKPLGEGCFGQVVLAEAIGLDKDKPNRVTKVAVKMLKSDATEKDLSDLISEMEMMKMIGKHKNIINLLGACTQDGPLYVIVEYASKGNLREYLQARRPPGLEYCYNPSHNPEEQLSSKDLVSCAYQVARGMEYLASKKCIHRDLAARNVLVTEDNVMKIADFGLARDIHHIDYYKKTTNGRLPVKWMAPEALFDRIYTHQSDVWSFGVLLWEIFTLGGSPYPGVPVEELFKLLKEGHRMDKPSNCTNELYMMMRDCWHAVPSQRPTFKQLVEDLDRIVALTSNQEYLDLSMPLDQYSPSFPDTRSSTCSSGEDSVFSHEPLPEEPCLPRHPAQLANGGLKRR
In the next data set the target is FGFR2 N549H (Homo sapiens (Human), UniProt P21802, N549H). The data set is described as follows: HTRF kinase activity assay, FGFR2 N549H. It counts as biochemical. As to the method:
as §1

In data set [5] the test system is Ba/F3 KIF5B-RET-G810R cells. As to the kind of experiment: Ba/F3 KIF5B-RET-G810R cell inhibition (CellTiter-Glo). It counts as cell-based. To be noted: Mus musculus, BaF3, 72 h, maximum concentration 1000 nM. As to the method: as §5
The target in another data set is FGFR3 V555M (Homo sapiens (Human), UniProt P22607, V555M). The data set is described as follows: HTRF kinase activity assay, FGFR3 V555M. It counts as biochemical. As for the experimental part:
as §2, §3, §4

In a further data set the target is FGFR1 V561M (Homo sapiens (Human), UniProt P11362, V561M). The data set is described as follows: HTRF kinase activity assay, FGFR1 V561M. Type of data set: biochemical. As for the experimental part:
as §2, §3, §4

Where [6] appears, read: 30 mg/kg b.i.d. intragastric, Day 11.
[7] abbreviates: 30 mg/kg b.i.d. intragastric, Day 15.
Where [8] appears, read: NVSG mice, oral 30 mg/kg, 4 h after administration.

Molecules are shown by their SMILES. Like-named read-outs stand apart in the source and are kept apart here.

FGFR2, sequence (P21802 22-821): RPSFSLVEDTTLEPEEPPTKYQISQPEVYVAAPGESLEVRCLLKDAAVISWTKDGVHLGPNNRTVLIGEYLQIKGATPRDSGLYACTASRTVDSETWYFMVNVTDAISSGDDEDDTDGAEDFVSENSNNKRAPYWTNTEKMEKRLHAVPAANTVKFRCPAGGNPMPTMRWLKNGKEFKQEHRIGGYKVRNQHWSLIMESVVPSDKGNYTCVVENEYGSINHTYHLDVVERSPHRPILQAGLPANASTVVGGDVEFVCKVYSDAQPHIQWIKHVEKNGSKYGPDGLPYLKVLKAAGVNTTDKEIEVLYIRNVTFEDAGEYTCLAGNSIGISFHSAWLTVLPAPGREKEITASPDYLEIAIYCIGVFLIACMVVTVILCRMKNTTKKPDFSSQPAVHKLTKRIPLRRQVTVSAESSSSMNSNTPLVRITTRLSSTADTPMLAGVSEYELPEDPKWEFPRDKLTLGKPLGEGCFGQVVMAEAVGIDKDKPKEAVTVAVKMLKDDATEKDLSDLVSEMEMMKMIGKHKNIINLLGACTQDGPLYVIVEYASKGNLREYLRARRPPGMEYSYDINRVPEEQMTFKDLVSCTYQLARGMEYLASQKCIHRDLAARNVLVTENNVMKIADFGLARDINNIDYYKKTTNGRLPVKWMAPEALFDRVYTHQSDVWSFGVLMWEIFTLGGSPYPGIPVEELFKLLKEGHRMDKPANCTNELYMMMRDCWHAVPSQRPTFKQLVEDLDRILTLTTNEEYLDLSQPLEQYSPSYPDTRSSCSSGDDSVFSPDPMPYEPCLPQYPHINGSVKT
FGFR2 N549H, sequence (P21802 22-821 N549H): as the sequence (P21802 22-821) above, with N528H counted along it
FGFR2 V564I, sequence (P21802 22-821 V564I): as the sequence (P21802 22-821) above, with V543I counted along it
FGFR1 V561M, sequence (P11362 22-822 V561M): as the sequence (P11362 22-822) above, with V540M counted along it
FGFR3 V555M, sequence (P22607 23-806 V555M): as the sequence (P22607 23-806 K650E) above, with V533M, E628K counted along it
FGFR3, sequence (P22607 23-806): as the sequence (P22607 23-806 K650E) above, with E628K counted along it
FGFR2 V564F, sequence (P21802 22-821 V564F): as the sequence (P21802 22-821) above, with V543F counted along it

The microsomal CLint is the rate of metabolic loss divided by the concentration. As usually defined, the half-life is the time needed for the level to fall by half in the phase considered. Lower therefore signals rapid decline. For orientation: IC50 means the concentration at which inhibition is half-maximal. In the case of `[2H]C([2H])([2H])N1CCN(c2cc(-c3ccc(N4CC5CC(C4)N5Cc4ccc(OC)nc4)nc3)c3c(C#N)cnn3c2)CC1` [Compound 94], the intrinsic clearance (microsomal CLint) at 1 µM in [1] stood at 41.2 µL/min/mg. The half-life at 1 µM in [1] is 33.6 min. Also, the 50% inhibitory concentration (IC50) at FGFR2 V564I was 45.6 nM; on FGFR3 K650E, 36.5 nM; on FGFR3, 309 nM; on FGFR2, 26.5 nM; on FGFR2 V564F, 3.58 nM; in data set [4], 99 nM. Also, the half-inhibitory concentration (IC50) against FGFR1 turned out to be 301 nM; against FGFR2 N549H, 2.19 nM; in data set [5], 464 nM; at FGFR3 V555M, 74.3 nM; against FGFR1 V561M, 1400 nM. The “Volume of graft tumor (mean ± SD)” value in [2] (30 mg/kg b.i.d. intragastric, Day 0) is on record as 96.85 ± 2.24 mm^3; in data set [2] (setting [6]), 12.19 ± 27.25 mm^3; in [2] (setting [7]), 8.00 ± 17.89 mm^3; in data set [2] (30 mg/kg q.d. intragastric, Day 0) it was 96.95 ± 1.48 mm^3; in [2] (30 mg/kg q.d. intragastric, Day 11), 14.57 ± 23.42 mm^3; in data set [2] (30 mg/kg q.d. intragastric, Day 15), 9.73 ± 16.31 mm^3. The “Volume of graft tumor (mean ± SD)” value turned out to be 96.76 ± 2.34 mm^3 in data set [2] (60 mg/kg q.d. intragastric, Day 0); 6.11 ± 14.98 mm^3 in [2] (60 mg/kg q.d. intragastric, Day 11); 3.75 ± 9.19 mm^3 in [2] (60 mg/kg q.d. intragastric, Day 15). Moreover, in [3] (setting [8]), the “Concentration of compound in brain” value stood at 2883.99 ng/g. Also, the “Concentration of compound in liver” value in data set [3] (setting [8]) was 70199.89 ng/g. Besides, the “Concentration of compound in lung” value in data set [3] (setting [8]) is recorded as 87220.49 ng/g. Moreover, in data set [3] (setting [8]), the “Concentration of compound in plasma” value was found to be 3174.97 ng/mL. Moreover, the “Concentration distribution in tissues of target organs of mice compared with Loxo-292” value in data set [3] (after oral administration) was “higher concentration distribution”.
`COc1ccc(CN2C3CC2CN(c2ccc(-c4cc(OCC(C)(C)O)cn5ncc(C#N)c45)cn2)C3)cn1` [Selpercatinib, selpercatinib, reference compound] returned an intrinsic metabolic clearance (microsomal CLint) at 1 µM in data set [1] of 60.4 µL/min/mg. In data set [1], this compound gave a half-life at 1 µM of 22.9 min. For the same compound, the IC50 was 97.6 nM against FGFR2 V564I; 45.9 nM against FGFR3 K650E; 349 nM against FGFR3; 20.6 nM against FGFR2; 12.9 nM on FGFR2 V564F; 38.4 nM in data set [4]. Moreover, the half-maximal inhibitory concentration (IC50) on FGFR1 was 304 nM; on FGFR2 N549H, 9.26 nM; in data set [5], above 1000 nM; against FGFR3 V555M it was 188 nM; against FGFR1 V561M it was 1950 nM. Further, the “Volume of graft tumor (mean ± SD)” value in data set [2] (setting [6]) amounted to 19.68 ± 17.97 mm^3; in data set [2] (setting [7]), 13.59 ± 12.43 mm^3. For the same compound, the concentration at 4 h was 88.3 ng/g in data set [3] (brain, NVSG mice, oral 30 mg/kg, 4 h after administration, read-out: Concentration of compound in brain); 12900 ng/g in [3] (liver, NVSG mice, oral 30 mg/kg, 4 h after administration, read-out: Concentration of compound in liver); 7190 ng/g in data set [3] (lung, NVSG mice, oral 30 mg/kg, 4 h after administration, read-out: Concentration of compound in lung); 14600 ng/mL in data set [3] (plasma, NVSG mice, oral 30 mg/kg, 4 h after administration, read-out: Concentration of compound in plasma).
